Literature values in patent US20060193845A1, “Combination therapy for controlled carbohydrate digestion” (ELIXIR PHARMACEUTICALS, INC., priority 2004, published 2006).

solubility in water: soluble
SMILES: OCCN1C[C@H](O)[C@@H](O)[C@H](O)[C@H]1CO [Miglitol, 3,4,5-piperidinetriol, 1-(2-hydroxyethyl)-2-(hydroxymethyl)-, [2R-(2α,3β,4α,5β)]]
